# Source: US7566718B2, “Amine-linked pyridyl and phenyl substituted piperazine-piperidines with CXCR3 antagonist activity” (Schering Corporation, priority 2005, dated 2009)
# Biological target: T1, human CXCR3 (N-delta 4) (Homo sapiens, UniProt P49682)
# T1 construct: CD8 leader (N); Flag tag; expressed in transfected cells; membrane preparation
# T1 sequence (P49682 5-368 limits assumed): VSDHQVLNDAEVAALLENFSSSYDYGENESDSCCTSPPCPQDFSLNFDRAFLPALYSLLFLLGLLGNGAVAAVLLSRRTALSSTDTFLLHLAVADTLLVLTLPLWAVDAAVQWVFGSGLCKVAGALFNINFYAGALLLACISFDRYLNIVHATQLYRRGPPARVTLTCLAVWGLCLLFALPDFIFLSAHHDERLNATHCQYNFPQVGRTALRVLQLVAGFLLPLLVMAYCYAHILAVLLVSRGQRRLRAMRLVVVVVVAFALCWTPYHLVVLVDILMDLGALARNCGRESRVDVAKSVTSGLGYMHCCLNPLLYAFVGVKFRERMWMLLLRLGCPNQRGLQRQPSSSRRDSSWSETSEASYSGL
# Experiment: Human CXCR3 (N-delta 4) scintillation proximity assay (SPA), [125I] IP-10 binding to Ba/F3-hCXCR3 membranes
# Conditions: IC50 rating; [125I] IP-10 displacement, human CXCR3; read-out: IC50
# Description: The inventive compounds can readily be evaluated to determine activity at the CXCR3 receptors by known methods, such as, for example, development of a human CXCR3 (N-delta 4) Binding Assay.
# The DNA encoding human CXCR3 was cloned by PCR using human genomic DNA (Promega, Madison, Wis.) as a template. The PCR primers were designed based on the published sequence of human orphan receptor GPR9 (1) with incorporated restriction sites, a Kozak consensus sequence, CD8 leader and Flag tag. The PCR product was subcloned into the mammalian expression vector pME18Sneo, a derivative of the SR-alpha expression vector (designated as pME18Sneo-hCXCR3 (N-delta 4).
# IL-3-dependent mouse pro-B cells Ba/F3 were transfected by electroporation in 0.4 ml Dulbecco's PBS containing 4×10^6 cells with 20 μg of pME18Sneo-hCXCR3 (N-delta 4) plasmid DNA. Cells were pulsed at 400 Volts, 100 OHMs, 960 μFd. The transfected cells were under selection with 1 mg/ml G418 (Life Technologies, Gaithersburg, Md.). G418-resistant Ba/F3 clones were screened for CXCR3 expression by specific binding of [^125I] IP-10 (NEN Life Science Products, Boston, Mass.).
# Ba/F3 cells expressing human CXCR3 (N-delta 4) were pelleted and resuspended in the lysis buffer containing 10 mM HEPES, pH 7.5 and Complete® protease inhibitors (1 tablet per 100 ml) (Boehringer Mannheim, Indianapolis, Ind.) at a cell density of 20×10^6 cells per ml. After 5 minute incubation on ice, cells were transferred to 4639 cell disruption bomb (Parr Instrument, Moline, Ill.) and applied with 1,500 psi of nitrogen for 30 minutes on ice. Large cellular debris was removed by centrifugation at 1,000×g. Cell membrane in the supernatant was sedimented at 100,000×g. The membrane was resuspended in the lysis buffer supplemented with 10% sucrose and stored at −80° C. Total protein concentration of the membrane was determined by BCA method from Pierce (Rockford, Ill.).
# Human CXCR3 (N-Delta 4) Scintillation Proximity Assay (SPA):
# For each assay point, 2 μg of membrane was preincubated for 1 hr with 300 μg wheat germ agglutinin (WGA) coated SPA beads (Amersham, Arlington Heights, Ill.) in the binding buffer (50 mM HEPES, 1 mM CaCl2, 5 mM MgCl2, 125 mM NaCl, 0.002% NaN3, 1.0% BSA) at room temperature. The beads were spun down, washed once, resuspended in the binding buffer and transferred to a 96-well Isoplate (Wallac, Gaithersburg, Md.). 25 pM of [^125I] IP-10 with tested compounds in a series of titration were added to start the reaction. After 3 hr reaction at room temperature, the amount of [^125I] IP-10 bound to the SPA beads was determined with a Wallac 1450 Microbeta counter.
row,IC50,Structure (SMILES)
1,> 0.1 µM,CC[C@H]1CN(c2ncc(NC3=NS(=O)(=O)N=C3N(C)C)cc2Cl)CCN1C1CCN(Cc2ccc(F)c(F)c2)CC1 [Compound 272]
2,> 0.1 µM,C[C@@H]1CN(C2CCN(Cc3ccc(Cl)cc3F)CC2)[C@@H](C)CN1c1ncc(NS(C)(=O)=O)cc1Cl [Compound 50]
3,> 0.1 µM,C[C@@H]1CN(c2ncc(Nc3c(NCC(F)(F)F)c(=O)c3=O)cc2Cl)[C@@H](C)CN1C1CCN(Cc2ccccc2Sc2ccc(Cl)cc2)CC1 [Compound 138]
4,> 0.1 µM,CC[C@H]1CN(c2ncc(NC3=NS(=O)(=O)N=C3NC3CC3)cc2Cl)CCN1C1CCN(C(=O)c2ccc(Cl)cc2O)CC1 [Compound 275]
5,< 0.025 µM,CC[C@H]1CN(c2ncc(NC3=NS(=O)(=O)N=C3NC3CCC3)cc2Cl)CCN1C1CCN(Cc2ccc(Cl)cc2F)CC1 [Compound 247]
6,> 0.1 µM,C[C@H]1CN(c2ncc(NC(=O)Nc3ccc(F)cc3)cc2Cl)CCN1C1CCN(Cc2ccc(Cl)cc2)CC1 [Compound 199]
7,> 0.1 µM,CC(C)CCN1CCC(N2C[C@H](C)N(c3ncc(Nc4c(NCC(F)(F)F)c(=O)c4=O)cc3Cl)C[C@H]2C)CC1 [Compound 113]
8,< 0.025 µM,CC[C@H]1CN(c2ncc(NC(C)=O)cc2Cl)CCN1C1CCN(Cc2ccc(Cl)cc2F)CC1 [Compound 177]
9,> 0.1 µM,C[C@H]1CN(c2ncc(NS(C)(=O)=O)cc2Cl)CCN1C1CCN(CCCc2ccc(Cl)cc2)CC1 [Compound 57]
10,> 0.1 µM,CC[C@H]1CN(c2ncc(NS(C)(=O)=O)cc2Cl)CCN1C1CCN(Cc2ccc(Br)cc2OC)CC1 [Compound 65]
11,> 0.1 µM,C[C@@H]1CN(C2CCN(Cc3ccc(Cl)cc3F)CC2)[C@@H](C)CN1c1ncc(N)cc1N [Compound 233]
12,> 0.1 µM,C[C@@H]1CN(c2ncc(Nc3c(NCC(F)(F)F)c(=O)c3=O)cc2Cl)[C@@H](C)CN1C1CCN(Cc2ccc(Oc3ccccc3)cc2)CC1 [Compound 161]
13,< 0.025 µM,CC[C@H]1CN(c2ncc(NS(C)(=O)=O)cc2Cl)CCN1C1CCN(Cc2ccc(Br)cc2)CC1 [Compound 5]
14,> 0.1 µM,C[C@@H]1CN(c2ncc(Nc3c(NCC(F)(F)F)c(=O)c3=O)cc2Cl)[C@@H](C)CN1C1CCN(Cc2cccc(Br)c2)CC1 [Compound 136]
15,> 0.1 µM,C[C@@H]1CN(c2ncc(Nc3c(NCC(F)(F)F)c(=O)c3=O)cc2Cl)[C@@H](C)CN1C1CCN(Cc2ccc(Cl)cc2Cl)CC1 [Compound 134]
16,> 0.1 µM,CSc1ccc(CN2CCC(N3C[C@H](C)N(c4ncc(Nc5c(NCC(F)(F)F)c(=O)c5=O)cc4Cl)C[C@H]3C)CC2)cc1 [Compound 121]
17,> 0.1 µM,C[C@@H]1CN(c2ncc(Nc3c(NCC(F)(F)F)c(=O)c3=O)cc2Cl)[C@@H](C)CN1C1CCN(CCC(C)(C)C)CC1 [Compound 150]
18,> 0.1 µM,C[C@@H]1CN(c2ncc(Nc3c(NCC(F)(F)F)c(=O)c3=O)cc2Cl)[C@@H](C)CN1C1CCN(C2CCC(c3ccccc3)CC2)CC1 (stereo partly drawn) [Compound 146]
19,< 0.025 µM,CC[C@H]1CN(c2ncc(NS(C)(=O)=O)cc2Cl)CCN1C1CCN(Cc2ccc(OC(F)F)cc2)CC1 [Compound 13]
20,< 0.025 µM,CC[C@H]1CN(c2ncc(Nc3c(NC4CCC4)c(=O)c3=O)cc2Cl)CCN1C1CCN(Cc2ccc(Cl)cc2)CC1 [Compound 78]
21,< 0.025 µM,CC[C@H]1CN(c2ncc(NS(C)(=O)=O)cc2Cl)CCN1C1CCN([C@H](CO)c2ccc(Cl)cc2)CC1 [Compound 4]
22,< 0.025 µM,CC[C@H]1CN(c2ncc(Nc3c(N)c(=O)c3=O)cc2Cl)CCN1C1CCN(Cc2ccc(Cl)cc2F)CC1 [Compound 76]
23,> 0.1 µM,C[C@@H]1CN(c2ncc(Nc3c(NCC(F)(F)F)c(=O)c3=O)cc2Cl)[C@@H](C)CN1C1CCN(Cc2ccc(-c3ccccc3)cc2)CC1 [Compound 135]
24,< 0.025 µM,CC[C@H]1CN(c2ncc(NS(=O)(=O)CC)cc2Cl)CCN1C1CCN(C(N)c2ccc(Cl)cc2F)CC1 (stereo partly drawn) [Compound 15]

row,IC50,Structure (SMILES)
1,> 0.1 µM,CCC(=O)[C@@H](c1ccc(Cl)cc1)N1CCC(N2CCN(c3ncc(NS(N)(=O)=O)cc3Cl)C[C@@H]2CC)CC1 [Compound 41]
2,< 0.025 µM,CC[C@H]1CN(c2ncc(NC(=O)C3CC3)cc2Cl)CCN1C1CCN(Cc2ccc(Cl)cc2F)CC1 [Compound 180]
3,0.025 to 0.1 µM,CC[C@H]1CN(c2ncc(NC(=O)NN)cc2Cl)CCN1C1CCN(Cc2ccc(Cl)cc2F)CC1 [Compound 188]
4,> 0.1 µM,C[C@@H]1CN(c2ncc(Nc3c(NCC(F)(F)F)c(=O)c3=O)cc2Cl)[C@@H](C)CN1C1CCN(C2CCCC(C(F)(F)F)C2)CC1 (stereo partly drawn) [Compound 145]
5,> 0.1 µM,C[C@H]1CN(c2ncc(NS(C)(=O)=O)cc2Cl)CCN1C1CCN(C(=O)c2ccc(Cl)cc2)CC1 [Compound 66]
6,> 0.1 µM,CC[C@H]1CN(c2ncc(NS(C)(=O)=O)cc2Cl)CCN1C1CCN([C@@H](C(=O)NC)c2ccc(Cl)cc2)CC1 [Compound 54]
7,< 0.025 µM,CC[C@H]1CN(c2ncc(Nc3c(NC4CC4)c(=O)c3=O)cc2Cl)CCN1C1CCN([C@@H](C(=O)NC)c2ccc(Cl)cc2)CC1 [Compound 101]
8,0.025 to 0.1 µM,CC[C@H]1CN(c2ncc(Nc3c(OC)c(=O)c3=O)cc2Cl)CCN1C1CCN(Cc2ccc(Cl)cc2F)CC1 [Compound 106]
9,< 0.025 µM,CC[C@H]1CN(c2ncc(Nc3c(N(C)C)c(=O)c3=O)cc2Cl)CCN1C1CCN(C(CO)c2ccc(Cl)cc2)CC1 (stereo partly drawn) [Compound 94]
10,< 0.025 µM,CC[C@H]1CN(c2ncc(NS(C)(=O)=O)cc2Cl)CCN1C1CCN(Cc2ccc(OC(F)(F)F)cc2)CC1 [Compound 10]
11,> 0.1 µM,CC[C@H]1CN(c2ncc(NS(C)(=O)=O)cc2Cl)CCN1C1CCN(Cc2ccsc2)CC1 [Compound 60]
12,0.025 to 0.1 µM,CC[C@H]1CN(c2ncc(NC3=NS(=O)(=O)N=C3N(C)C)cc2Cl)CCN1C1CCN(Cc2ccc(Cl)cc2C(=N)NO)CC1 [Compound 256]
13,> 0.1 µM,C[C@H]1CN(c2ncc(NC(=O)NCc3ccccc3)cc2Cl)CCN1C1CCN(Cc2ccc(Cl)cc2)CC1 [Compound 198]
14,< 0.025 µM,CC[C@H]1CN(c2ncc(NS(N)(=O)=O)cc2Cl)CCN1C1CCN(Cc2ccc(Cl)cc2F)CC1 [Compound 2]
15,> 0.1 µM,C[C@@H]1CN(c2ncc(NC3C(=O)C(=O)C3NCC(F)(F)F)cc2Cl)[C@@H](C)CN1C1CCN(Cc2ccc3ccccc3c2)CC1 (stereo partly drawn) [Compound 122]
16,< 0.025 µM,CC[C@H]1CN(c2ncc(Nc3c(C(C)C)c(=O)c3=O)cc2Cl)CCN1C1CCN(Cc2ccc(OC(F)(F)F)cc2)CC1 [Compound 86]
17,< 0.025 µM,CC[C@H]1CN(c2ncc(Nc3c(NC4CC4)c(=O)c3=O)cc2Cl)CCN1C1CCN(Cc2ccc(C#N)cc2)CC1 [Compound 80]
18,> 0.1 µM,CC[C@H]1CN(c2ncc(NC3=NS(=O)(=O)N=C3NC(CO)C(N)=O)cc2Cl)CCN1C1CCN(Cc2ccc(Cl)cc2F)CC1 (stereo partly drawn) [Compound 276]
19,> 0.1 µM,C[C@@H]1CN(c2ncc(Nc3c(NCC(F)(F)F)c(=O)c3=O)cc2Cl)[C@@H](C)CN1C1CCN(Cc2cc(Cl)cc(Cl)c2)CC1 [Compound 159]
20,> 0.1 µM,Cc1cc(Nc2c(NCC(F)(F)F)c(=O)c2=O)cnc1N1C[C@@H](C)N(C2CCN(C(=O)c3ccc(C#N)cc3)CC2)C[C@@H]1C [Compound 131]
21,0.025 to 0.1 µM,CC[C@H]1CN(c2ncc(N(C)C)cc2Cl)CCN1C1CCN(C(CO)c2ccc(Cl)cc2)CC1 (stereo partly drawn) [Compound 213]
22,< 0.025 µM,CC[C@H]1CN(c2ncc(NC3=NS(=O)(=O)N=C3NC3CC3)cc2Cl)CCN1C1CCN(Cc2ccc(F)c(F)c2)CC1 [Compound 251]
23,< 0.025 µM,CC[C@H]1CN(c2ncc(N)cc2Cl)CCN1C1CCN(Cc2ccc(Cl)cc2)CC1 [Compound 202]
24,< 0.025 µM,CC[C@H]1CN(c2ncc(Nc3c(NCCO)c(=O)c3=O)cc2Cl)CCN1C1CCN(Cc2ccc(Cl)cc2C(N)=O)CC1 [Compound 72]
